For the experiment, the system named is nuclear p27 in LNCaP-S14 cells. The class given is cell-based, human.
The mark [1] stands for this setting: primary screening, nuclear p27 in LNCaP-S14 cells.
Setting [2] is: primary screening, S = strong, M = medium, W = weak by Z score.

The structures appear in SMILES notation. Like-named read-outs stand apart in the source and are kept apart here.

Take `CC=C(C)C(=O)OC1C(C)=C2C(C1OC(=O)CCCCCCC)C(C)(OC(C)=O)CC(OC(=O)CCC)C1(O)C2OC(=O)C1(C)O` (centres unmarked) [1361L03]: the “Z score (aver)” value under setting [1] was 8.27. Under setting [2], the Clasf result is reported as “S (strong (Z score > 5))”.
For `CNc1ccc2oc(CC3OC4(CCC3C)OC(C(C)C(=O)c3ccc[nH]3)C(C)CC4C)nc2c1C(=O)O` (centres unmarked) [1361O18], in that order: 8.06 and “S (strong (Z score > 5))”.
With `N#CC(C#N)=NNc1ccc(OC(F)(F)F)cc1` [1362E11], the Clasf result is on record as “S (key: S: strong (Z score > 5); M: medium (Z score 3-5); W: weak (Z score 2-3)” and the “Z score (aver)” value is recorded as 6.18.
On to `CC1OC(=O)C(C(C)C)NC(=O)C(C(C)C)OC(=O)C(C(C)C)NC(=O)C(C)OC(=O)C(C(C)C)NC(=O)C(C(C)C)OC(=O)C(C(C)C)NC(=O)C(C)OC(=O)C(C(C)C)NC(=O)C(C(C)C)OC(=O)C(C(C)C)NC1=O` (centres unmarked) [1362N07], for which the “Z score (aver)” value under setting [1] came to 7.42. Also, the Clasf result under setting [2] is recorded as “S (strong (Z score > 5))”.
For `COCC1OC(=O)c2coc3c2C1(C)C1=C(C3=O)C2CCC(=O)C2(C)CC1OC(C)=O` (centres unmarked) [1362N13], in that order: 6.65 and “S (strong (Z score > 5))”.
For `CCOC(=O)c1cc(C#N)c(Sc2ccc(C)cc2)nc1C(F)(F)F` [1520B07], the “Z score (aver)” value under setting [1] was 5.43. Moreover, the Clasf result under setting [2] is reported as “S (strong (Z score > 5))”.
For `CC1=NC(=Cc2sccc2C)C(=O)O1` [1520B10], in that order: 2.27 and “W (weak (Z score 2-3)”.
As for `COc1ccc(OCC(=N)NC(=S)Nc2ccc(Cl)cc2)cc1` [1520B19], the “Z score (aver)” value under setting [1] came out at 2.51. Moreover, under setting [2], the Clasf entry was “W (weak (Z score 2-3)”.
For `O=C(CSC1=NNC(c2ccccn2)S1)c1cccc(F)c1` (centres unmarked) [1520D17], in that order: 4.91 and “M (medium (Z score 3-5))”.
Regarding `Cc1cc(Br)ccc1NC(=O)CCCc1c[nH]c2ccccc12` [1520E21], the “Z score (aver)” value under setting [1] was 4.74. Besides, under setting [2], the Clasf entry was “M (medium (Z score 3-5))”.
For `COc1ccc(SC(=O)c2cc(C)n(Cc3c(Cl)cccc3Cl)n2)cc1` [1520J06], in that order: 3.39 and “M (medium (Z score 3-5))”.
For `CCCNC(=O)Nc1nc(Nc2ccc(Cl)cc2)n[nH]1` [1520J18], in that order: 3.47 and “M (medium (Z score 3-5))”.
For `Cc1onc(-c2c(Cl)cccc2Cl)c1-c1csc(CCn2c(=O)oc3ccccc32)n1` [1520L12], in that order: 2.13 and “W (weak (Z score 2-3)”.
For `O=c1c(C(F)(F)F)cccn1CCc1nc(-c2ccccc2)cs1` [1520N01], the “Z score (aver)” value under setting [1] is given as 3.32. Further, the Clasf entry under setting [2] is given as “M (medium (Z score 3-5))”.
For `Cc1cc(C(=O)Sc2cccc(Br)c2)nn1C(C)(C)C` [1520N02], in that order: 5.16 and “S (strong (Z score > 5))”.
For `CC(C)c1ccc(NC(=O)N2CCCN(CCOc3ccccc3)CC2)cc1` [1520P16], in that order: 2.72 and “W (weak (Z score 2-3)”.
For `C=C(CC)C(=O)c1ccc(OCC(=O)O)c(Cl)c1Cl` [1568D20], in that order: 3.20 and “M (medium (Z score 3-5))”.
For `CCCCOc1ccc(C(=O)CCN2CCCCC2)cc1.Cl` [1568F10], under setting [1], the “Z score (aver)” value turned out to be 2.33. In addition, the Clasf entry under setting [2] is recorded as “W (weak (Z score 2-3)”.
With `Clc1ccccc1C(c1ccccc1)(c1ccccc1)n1ccnc1` [1568F16], the Clasf result is “W (key: S: strong (Z score > 5); M: medium (Z score 3-5); W: weak (Z score 2-3)” and the “Z score (aver)” value is on record as 2.26.
`CN(C)CCCN1c2ccccc2CCc2ccc(Cl)cc21.Cl` [1568F20]: under setting [1], the “Z score (aver)” value was 2.49. Further, the Clasf entry under setting [2] was “W (weak (Z score 2-3)”.
As to `O=C(Nc1ccc([N+](=O)[O-])cc1Cl)c1cc(Cl)ccc1O` [1568G21], the “Z score (aver)” value under setting [1] is on record as 3.77. Further, under setting [2], the Clasf result was “M (medium (Z score 3-5))”.
Turning to `CCC1(O)C(=O)OCc2c1cc1n(c2=O)Cc2cc3ccccc3nc2-1` (centres unmarked) [1568H21], the “Z score (aver)” value under setting [1] is reported as 4.82. In addition, under setting [2], the Clasf result is “M (medium (Z score 3-5))”.
Consider `OCCN1CCN(CCCN2c3ccccc3Sc3ccc(Cl)cc32)CC1` [1568I12], for which the “Z score (aver)” value under setting [1] was determined as 3.13. Under setting [2], the Clasf entry is recorded as “M (medium (Z score 3-5))”.
For the compound `Cl.OC(c1cc(C(F)(F)F)nc2c(C(F)(F)F)cccc12)C1CCCCN1` (centres unmarked) [1568I14], the “Z score (aver)” value under setting [1] was determined as 8.87. Besides, the Clasf entry under setting [2] is given as “S (strong (Z score > 5))”.
With `CN1CCCN(C(c2ccccc2)c2ccc(Cl)cc2)CC1.Cl` (centres unmarked) [1568J08], the “Z score (aver)” value under setting [1] worked out at 2.49. Also, under setting [2], the Clasf result is listed as “W (weak (Z score 2-3)”.
With `C1CCC(C(CC2CCCCN2)C2CCCCC2)CC1.O=C(O)C=CC(=O)O` (centres unmarked) [1568J14], the “Z score (aver)” value under setting [1] amounted to 7.22. For the same compound, the Clasf entry under setting [2] is listed as “S (strong (Z score > 5))”.
For `O=C(CCCN1CCC2(CC1)C(=O)NCN2c1ccccc1)c1ccc(F)cc1` [1568J18], in that order: 4.37 and “M (medium (Z score 3-5))”.
For `COC(=O)Nc1nc2cc(Sc3ccccc3)ccc2[nH]1` [1568J21], in that order: 3.73 and “M (medium (Z score 3-5))”.
For the compound `COc1ccc(CCN2CCC(Nc3nc4ccccc4n3Cc3ccc(F)cc3)CC2)cc1` [1568K14], the Clasf entry was “S (key: S: strong (Z score > 5); M: medium (Z score 3-5); W: weak (Z score 2-3)” and the “Z score (aver)” value amounted to 8.76.
Take `CC#CC1(O)CCC2C3CCC4=CC(=O)CCC4=C3C(c3ccc(N(C)C)cc3)CC21C` (centres unmarked) [1568L20]: the “Z score (aver)” value under setting [1] is 3.22. In addition, the Clasf entry under setting [2] is recorded as “M (medium (Z score 3-5))”.
`N=C(NCCCCCCNC(=N)NC(=N)Nc1ccc(Cl)cc1)NC(=N)Nc1ccc(Cl)cc1` [1568M08]: the “Z score (aver)” value under setting [1] amounted to 6.26. The Clasf entry under setting [2] is recorded as “S (strong (Z score > 5))”.
For `CCC(=C(c1ccccc1)c1ccc(OCCN(C)C)cc1)c1ccccc1.O=C(O)CC(O)(CC(=O)O)C(=O)O` [1568M14], in that order: 2.56 and “W (weak (Z score 2-3)”.
`Clc1ccc(COC(Cn2ccnc2)c2ccc(Cl)cc2Cl)c(Cl)c1` (centres unmarked) [1568M15]: the Clasf result is listed as “W (key: S: strong (Z score > 5); M: medium (Z score 3-5); W: weak (Z score 2-3)” and the “Z score (aver)” value turned out to be 2.54.
On to `Clc1ccc(COC(Cn2ccnc2)c2ccc(Cl)cc2Cl)cc1.O=[N+]([O-])O` (centres unmarked) [1568N10], for which the “Z score (aver)” value under setting [1] stood at 2.46. Besides, the Clasf entry under setting [2] is “W (weak (Z score 2-3)”.
Take `O=c1[nH]c2ccccc2n1C1CCN(CCCC(c2ccc(F)cc2)c2ccc(F)cc2)CC1` [1568N18]: the “Z score (aver)” value under setting [1] came to 2.26. Under setting [2], the Clasf entry is “W (weak (Z score 2-3)”.
On to `CSc1ccc2c(c1)N(CCC1CCCCN1C)c1ccccc1S2.Cl` (centres unmarked) [1568O17], for which the Clasf entry was “W (key: S: strong (Z score > 5); M: medium (Z score 3-5); W: weak (Z score 2-3)” and the “Z score (aver)” value is reported as 2.51.
With `CCN(CC)CCCC(C)Nc1c2ccc(Cl)cc2nc2ccc(OC)cc12` (centres unmarked) [1568P18], under setting [1], the “Z score (aver)” value is reported as 6.13. Besides, the Clasf entry under setting [2] is listed as “S (strong (Z score > 5))”.

The record behind these values is PMC3025922 (BMC Biology, 2010).
